{"source": "patent US20050127321A1", "about": "“Compositions containing lactone compatibilizers” (priority 2003, published 2005)"}
{"system": "not listed separately", "assay": "Phase separation temperature of compatibilizer / Zerol 150 alkylbenzene oil / R134a mixtures (cloud point on cooling)", "type": "physicochemical", "settings": "near 25.0 wt % Zerol 150 : 25.0 wt % compatibilizer : 50.0 wt % R134a, cooled in one degree intervals", "protocol": "The phase separation temperatures for lactone compatibilizers of the present invention when combined with Zerol® 150 alkylbenzene oil were determined. […] The glass tube was sealed at one end, and the other end was sealed to a Teflon® vacuum valve stopcock. This entire apparatus was tared, and was attached at valve E to a high vacuum line capable of achieving 10^−4 to 10^−5 torr (See FIG. 1). The pressure was measured by a mercury manometer, F. All five valves, A, B, C, D and E were attached to the manifold via greased ground-glass joints. Valve A joined the manifold to the source of refrigerant. Valve B joined a flask comprising fluorocarbon refrigerant, once loaded into the manifold. Valve C joined a 125.5 mL calibrated vessel to the manifold. And valve D joined a 5 mm OD in leg glass tube 150 mm in length containing oil and compatibilizer.\nThe glass tube, refrigerant container, and calibrated volume were evacuated by opening valve B, C, D, and E, and keeping valve A closed. After vacuum was achieved, Valve D and E were closed. An atmosphere of refrigerant was introduced into the vacuum line by opening Valve A. After closing valve A, the refrigerant was condensed into the refrigerant container by cooling with a liquid nitrogen bath. Valve E was opened to remove any residual air. Valve E was closed, and the refrigerant container was allowed to warm until the desired pressure was reached as indicated on the mercury manometer whereupon Valve C was closed trapping a known amount of refrigerant in the calibrated volume. The excess refrigerant was condensed back into the refrigerant container by cooling with a liquid nitrogen bath, Valve B was closed, and Valve E was opened to remove all residual gases. The glass tube was cooled in a liquid nitrogen bath, and the refrigerant was transferred from the calibrated volume to the glass tube by closing Valve E, and opening Valves C and D. Valve D was then sealed after all the refrigerant had transferred into the glass tube. The glass tube apparatus was removed from the vacuum line, and the tube was allowed to warm while maintaining the tube behind appropriate protective shielding for safety purposes throughout the rest of the procedure owing to the positive pressure in the glass tube. After removal of grease from the ground glass joint, the previously tared glass tube apparatus was weighed to ensure the appropriate mass of refrigerant had been added to the tube. In a typical experiment, the composition in the tube was near 50.0 wt % R134a, 25.0 wt % Zerol® 150 and 25.0 wt % of compatibilizer.\nThe phase separation temperature of the mixture was determined by manually shaking the contents of the glass tube while cooling the mixture by one degree Centigrade intervals until a cloudpoint/phase separation was visually observed. Results are shown in Table II in comparison with an amide compatibilizer, N-octyl-pyrrolidin-2-one."}
{"molecule": "CC(CC[C@@H]1C[C@H](C)OC1=O)CC(C)(C)C", "note": "(relative stereo) [cis-3-(3,5,5-trimethylhexyl)-5-methyl-dihydro-furan-2-one]", "Phase Separation Temperature": "2 deg C"}
{"molecule": "CC[C@@H]1C[C@H](C)OC1=O", "note": "(relative stereo) [cis-3-ethyl-5-methyl-dihydro-furan-2-one]", "Phase Separation Temperature": ">25 deg C"}
{"molecule": "CCCCCCC[C@@H]1C[C@H](C)OC1=O", "note": "(relative stereo) [cis-3-heptyl-5-methyl-dihydro-furan-2-one]", "Phase Separation Temperature": "phase gelled and/or precipitated at −11 deg C"}
{"molecule": "CCCCCC[C@@H]1C[C@H](C)OC1=O", "note": "(relative stereo) [cis-3-hexyl-5-methyl-dihydro-furan-2-one]", "Phase Separation Temperature": "−9 deg C"}
{"molecule": "CCCCCC[C@]1(C)CCC(=O)O1", "note": "(stereo in doubt) [5-methyl-5-hexyl-dihydro-furan-2-one]", "Phase Separation Temperature": "−2 deg C"}
{"molecule": "CCCCCCCC[C@]1(C)CCC(=O)O1", "note": "(stereo in doubt) [5-methyl-5-octyl-dihydro-furan-2-one]", "Phase Separation Temperature": "−4 deg C"}
{"molecule": "O=C1OC[C@H]2CCCC[C@@H]12", "note": "(stereo in doubt) [Hexahydro-isobenzofuran-1-one]", "Phase Separation Temperature": "4 deg C"}
{"molecule": "CCCCCCCC1CCOC1=O", "note": "(stereo not drawn) [3-heptyldihydro-furan-2-one]", "Phase Separation Temperature": "0 deg C"}
{"molecule": "CCCCCCC1CCOC1=O", "note": "(stereo not drawn) [3-hexyldihydro-furan-2-one]", "Phase Separation Temperature": "5 deg C"}
{"molecule": "CC(CC=C1C[C@@H](C)OC1=O)CC(C)(C)C", "note": "(stereo partly drawn) [(E,Z)-3-(3,5,5-trimethylhexylidene)-5-methyl-dihydrofuran-2-one]", "Phase Separation Temperature": "3 deg C"}
{"molecule": "CCCCCCC=C1CC(C)OC1=O", "note": "(stereo not drawn) [(E,Z)-3-Heptylidene-5-methyl-dihydro-furan-2-one]", "Phase Separation Temperature": "−6 deg C"}
{"molecule": "CCCCCC=C1CC(C)OC1=O", "note": "(stereo not drawn) [(E,Z)-3-Hexylidene-5-methyl-dihydro-furan-2-one]", "Phase Separation Temperature": "−7 deg C"}
{"molecule": "CCCC=C1CC(C)OC1=O", "note": "(stereo not drawn) [(E,Z)-3-butylidene-5-methyl-dihydro-furan-2-one]", "Phase Separation Temperature": "9 deg C"}
{"molecule": "CC1C/C(=C/C2CCCCC2)C(=O)O1", "note": "(stereo not drawn) [(E,Z)-3-cyclohexylmethylidene-5-methyl-dihydrofuran-2-one]", "Phase Separation Temperature": "−2 deg C"}
{"molecule": "CC=C1CC(C)OC1=O", "note": "(stereo not drawn) [(E,Z)-3-ethylidene-5-methyl-dihydro-furan-2-one]", "Phase Separation Temperature": "24 deg C"}
{"molecule": "CCCCCCCCC=C1CC(C)OC1=O", "note": "(stereo not drawn) [(E,Z)-3-nonylidene-5-methyl-dihydro-furan-2-one]", "Phase Separation Temperature": "4 deg C"}
{"molecule": "CCCCCCCC=C1CC(C)OC1=O", "note": "(stereo not drawn) [(E,Z)-3-octylidene-5-methyl-dihydro-furan-2-one]", "Phase Separation Temperature": "−8 deg C"}
{"molecule": "CCCCC=C1CC(C)OC1=O", "note": "(stereo not drawn) [(E,Z)-3-pentylidene-5-methyl-dihydro-furan-2-one]", "Phase Separation Temperature": "0 deg C"}
{"molecule": "CCC=C1CC(C)OC1=O", "note": "(stereo not drawn) [(E,Z)-3-propylidene-5-methyl-dihydro-furan-2-one]", "Phase Separation Temperature": "12 deg C"}
{"molecule": "CCCCCCCCN1CCCC1=O", "note": "[N-octylpyrrolidin-2-one, reference compound]", "Phase Separation Temperature": "−4 deg C"}
{"molecule": "CCCC[C@@H]1C[C@H](C)OC1=O", "note": "[cis-(3-butyl-5-methyl)-dihydro-furan-2-one]", "Phase Separation Temperature": "10 deg C"}
{"molecule": "CCCCC[C@@H]1C[C@H](C)OC1=O", "note": "[cis-(3-pentyl-5-methyl)-dihydro-furan-2-one]", "Phase Separation Temperature": "−1 deg C"}
{"molecule": "CCC[C@@H]1C[C@H](C)OC1=O", "note": "[cis-(3-propyl-5-methyl)-dihydro-furan-2-one]", "Phase Separation Temperature": "14 deg C"}
{"molecule": "CCCCCC1CCCC(=O)O1", "note": "(stereo not drawn) [delta-decalactone]", "Phase Separation Temperature": "−10 deg C"}
{"molecule": "CCCCCCCC1CCCC(=O)O1", "note": "(stereo not drawn) [delta-dodecalactone]", "Phase Separation Temperature": "−13 deg C"}
{"molecule": "CCCCCCC1CCCC(=O)O1", "note": "(stereo not drawn) [delta-undecalactone]", "Phase Separation Temperature": "−12 deg C"}
{"molecule": "CCCCOC(=O)c1ccccc1C(=O)OCCCC", "note": "[dibutyl phthalate, reference compound]", "Phase Separation Temperature": "18 deg C"}
{"molecule": "CCC1CCC(=O)O1", "note": "(stereo not drawn) [gamma-caprolactone, reference compound]", "Phase Separation Temperature": "Immiscible with Zerol ®150"}
{"molecule": "CCCCCCC1CCC(=O)O1", "note": "(stereo not drawn) [gamma-decalactone]", "Phase Separation Temperature": "−3 deg C"}
{"molecule": "CCCCCCCCC1CCC(=O)O1", "note": "(stereo not drawn) [gamma-dodecalactone]", "Phase Separation Temperature": "−6 deg C"}
{"molecule": "CCCCCC1CCC(=O)O1", "note": "(stereo not drawn) [gamma-nonalactone]", "Phase Separation Temperature": "−2 deg C"}
{"molecule": "CCCCC1CCC(=O)O1", "note": "(stereo not drawn) [gamma-octalactone]", "Phase Separation Temperature": "10 deg C"}
{"molecule": "(E,Z)-3-decylidene-5-methyl-dihydro-furan-2-one", "Phase Separation Temperature": "13 deg C"}
{"system": "not listed separately", "assay": "Kinematic viscosity of lactone compatibilizers", "type": "physicochemical", "settings": "at 40° C.", "units": {"kinematic viscosity": "centistokes"}}
{"molecule": "CCCCCC[C@@H]1C[C@H](C)OC1=O", "note": "(relative stereo) [cis-3-hexyl-5-methyl-dihydro-furan-2-one]", "kinematic viscosity": 4.5}
{"system": "New Zealand White rabbits", "assay": "Acute skin irritation/corrosive potential, scored on the Draize scale", "type": "in vivo", "settings": "0.5 mL undiluted, approximately 4 hours exposure, semi-occlusive, evaluated up to 72 hours", "protocol": "Compositions of the present invention were evaluated for acute skin irritation/corrosive potential in New Zealand White rabbits. An aliquot of 0.5 mL of undiluted compatibilizer was administered to a localized site on the backs of the animals. The test sites were covered with a semi-oclusive dressing to ensure contact between the skin and the test substance. The animals were exposed to the test substances for approximately 4 hours. The test sites were evaluated for erythrema, edema, and other evidence of dermal effects for up to 72 hours following the removal of the test substance. Observed dermal effects were scored according to the Draize scale. The reversibility of dermal effects was assessed for up to 14 days, as necessary."}
{"molecule": "5-methyl-n-octyl-pyrrolidin-2-one", "Classification": "Corrosive", "Observations (dermal effects)": "Necrosis"}
{"molecule": "CCCCCCC1CC(C)OC1=O", "note": "(stereo not drawn) [3-hexyl-5-methyl-gammabutyrolactone]", "Classification": "Not a skin irritant", "Observations (dermal effects)": "No irritation"}
{"molecule": "CC1CCC(=O)N1C1CCCCC1", "note": "(stereo not drawn) [5-methyl-n-cyclohexyl pyrrolidin-2-one]", "Classification": "Corrosive", "Observations (dermal effects)": "Necrosis"}
{"molecule": "CCCCCCCCC(=O)N(C)C", "note": "[N,N-Dimethylnonanamide]", "Classification": "Severe irritant"}
{"molecule": "CCCCCCCCN1CCCC1=O", "note": "[N-octylpyrrolidin-2-one, reference compound]", "Classification": "Severe irritant"}
